Source: US20180028681A1, “COMBINATION THERAPY USING A CD19-ADC AND VINCRISTINE” (SEATTLE GENETICS, INC., priority 2015, published 2018)

What was measured:
Assay type in all cases: in vivo, mouse
[1] = test system: ALL patient donor 90811 xenograft; assay: Disease burden (blast cells) in bone marrow, patient-derived ALL xenograft donor 90811; settings: for Disease Burden in Bone Marrow, CD45/10% Mean: NOD-scid IL2Rγ null mice, dosed at 18% blasts in sentinels, bone marrow counts day 10 post-dose
Text: Establishment of patient-derived xenografts: NOD-scid IL2Rγ null mice were used as hosts for patient-derived xenografts. Twenty-four hours prior to cell implant, mice received 1.0 Gy irradiation using a Radsource 2000 irradiator (Radsource technologies, Suwanee, Ga.). Frozen bone marrow isolates of mononuclear cells from patients with acute lymphoblastic leukemia were obtained from […] (Alameda, Calif.). Cells were thawed in a warm water bath. After thaw, RPMI-1640 media was slowly added to the bone marrow isolate suspension. The cells were washed with PBS and centrifuged to remove DMSO in freezing media. After centrifugation, the cells were suspended in PBS. For, implantation, 3.6×10^6 cells were injected into the tail vein of female NOD-scid IL2Rγ null mice designated as donor, or passage 0 mice. Approximately 7 weeks after implant, mice were euthanized. Bone marrow and spleen were collected using sterile technique. Spleens were mechanically disrupted using a sterile syringe end and mesh filter. Connective tissues from spleens were filtered out using 40um filters. Splenocytes and bone marrow cells were treated with red blood cell buffer lysis (BD lysis buffer, BD biosciences, San Jose, Calif.) for 15 minutes at room temperature. A sample of the cells was utilized for confirmation of engraftment. The percentage of blast cells was determined by the number of CD45 FITC, CD19 PE-Cy.5 (BD Biosciences, San Jose, Calif.) CD10 APC (Biolegend, San Diego, Calif.) triple positive cells via flow cytometry (FACScalibur, BD Biosciences, San Jose, Calif.). The majority of the cells (passage 1) were placed into freezing media (90% Heat inactivated fetal bovine serum and 10% DMSO). Subsequent xenograft experiments utilized passage 1 cells. Cells were implanted in the same manner done for donor mice (passage 0 mice). Starting 14-21 days post implant, 2-3 sentinel mice were euthanized to determine the percentage blast cells in the bone marrow. […] SGN-CD19A and non-specific ADC (also called h00-1269) were administered as a single intraperitoneal injection at 1.0, 3.0, or 10.0 mg/kg dose. Cyclophosphamide at 15 or 30 mg/kg (Baxter, Deefield, Ill.), Vincristine at 0.188 or 0.375 mg/kg (Hospira, Lake Forest, Ill.), and Doxorubicin at 1.24 or 2.475 mg/kg (Pfizer, NY, NY) were combined and administered as a single dose via intravenous injection into the lateral tail vein. Dexamethasone at 7.5 or 15 mg/kg (APP Pharmaceuticals, Schaumberg, Ill.) was given daily via intraperitoneal injection for five days. At pre-determined times post treatment, mice were euthanized for collection of bone marrow and determination of blast cell percentage via flow cytometry.
The response of human patient-derived ALL cells to single agent SGN-CD19A or CVAD was determined in mouse xenograft models. Bone marrow isolates from patients with ALL (donor 06343 and donor 90811) were used to establish xenografts in NOD-scid IL2Rgamma^null mice. After engraftment, patient-derived bone marrow cells were frozen and are referred to as passage 1 cells. Passage 1 cells were implanted into mice and assessed for presence of blast cells (CD45/CD10/CD19 positive cells). […] Mice were given either 1, 3, or 10 mg/kg of SGN-CD19A or 10 mg/kg of a non-specific ADC conjugated to MMAF (also called h00-1269). A maximum tolerated dose (MTD) of CVAD had previously been determined in the same mouse strain. Mice were given either CVAD at the MTD or at 50% of the MTD.
The response of human patient-derived ALL cells to the combination of SGN-CD19A and CVAD was also determined in the mouse xenograft model. Patient samples were engrafted as described above.

RS4; 11 = settings: C.B-17 SCID mice; treatment 1 day post implant; SGN-CD19A 0.3 mg/kg every four days x4; cyclophosphamide 30, vincristine 0.375, doxorubicin 2.475 mg/kg single iv; dexamethasone 15 mg/kg ip daily x5; terminated day 154
Method: (§1) Establishment of cell line xenografts: NALM-6 (DSMZ, Braunschweig, Germany) and RS4; 11 (ATCC, Manassas, Va.) cell lines were cultured in RPMI 1640 media, supplemented with Heat Inactivated Fetal Bovine serum (10%) and Penicillin/Streptomycin(1%) (Gibco, Grand Island, N.Y.). Cells were maintained in a humidified atmosphere at 37° C. and 5% CO2. For NALM-6 cell implantation, 1.0×10^5 cells in 200 ul PBS were injected into the tail vein of female C.B-17 SCID (Harlan Laboratories, Livermore, Calif.) mice. Mice were randomly assigned to treatment groups and treatment was given seven days post cell implant. For RS4; 11 cell implantation, 1.8×10^6 cells in 200 ul PBS were implanted into the tail vein of female C.B-17 SCID mice. Mice were randomly assigned to treatment groups. Treatment was given one day post cell implant. Treatment in the NALM-6 consisted of a single dose of SGN-CD19A at 1.0 mg/kg; in RS4; 11, SGN-CD19A was given once every four days for four doses at 0.3 mg/kg. Cyclophosphamide, 30 mg/kg (Baxter, Deefield, Ill.), Vincristine, 0.375 mg/kg (Hospira, Lake Forest, Ill.), and Doxorubicin, 2.475 mg/kg (Pfizer, NY, NY) were combined and administered as a single dose via intravenous injection into the lateral tail vein. Dexamethasone, 15 mg/kg (APP Pharmaceuticals, Schaumberg, Ill.), was given daily for five days via intraperitoneal injection. For each xenograft model, mice were monitored daily and body weights were collected at least once per week. Mice were removed from experiment at the onset of clinical disease signs (hind limb weakness, piloerection, hunched posture) or weight loss in excess of 20% of initial body weight.
(§2) Cell line-derived xenografts were used to investigate the median survival time for the combination of SGN-CD19A and CVAD, as well as SGN-CD19A and each of the components of CVAD. Either NALM-6 or Rs4; 11 cells were implanted into CB-17 SCID mice. Ten mice were assigned to each treatment group. […] SGN-CD19A and CVAD were administered at sub-optimal doses. Results are shown in FIGS. 4A and 4B and Tables 1 and 2. […] For the Rs4; 11 experiment, the experiment was terminated on day 154.

NALM-6 = settings: C.B-17 SCID mice; treatment 7 days post implant; SGN-CD19A single dose 1.0 mg/kg; cyclophosphamide 30, vincristine 0.375, doxorubicin 2.475 mg/kg single iv; dexamethasone 15 mg/kg ip daily x5; survivors sacrificed at 133 days
Method: as §1, §2

| Molecule | Disease Burden in Bone Marrow, CD45/10% Mean [1] [%] | Median Survival (RS4; 11) [days] | Median Survival (NALM-6) [days] | single agent dose response, blast cells in the bone marrow ([1]; SGN-CD19A 1, 3 or 10 mg/kg, CVAD at MTD or 50% of MTD, FIGS. 2B, 2D) |
| --- | --- | --- | --- | --- |
| O=P1(N(CCCl)CCCl)NCCCO1 (stereo not shown) [Cyclophosphamide] | 94.4 | 58 | 38 |  |
| C[C@@H]1C[C@H]2[C@@H]3CCC4=CC(=O)C=C[C@]4(C)[C@@]3(F)[C@@H](O)C[C@]2(C)[C@@]1(O)C(=O)CO [Dexamethasone] | 91.8 | 80 | 39 |  |
| COc1cccc2c1C(=O)c1c(O)c3c(c(O)c1C2=O)C[C@@](O)(C(=O)CO)C[C@@H]3O[C@H]1C[C@H](N)[C@H](O)[C@H](C)O1 [Doxorubicin] | 86.7 | 62 | 44 |  |
| CC[C@]1(O)C[C@H]2CN(CCc3c([nH]c4ccccc34)[C@@](C(=O)OC)(c3cc4c(cc3OC)N(C=O)[C@H]3[C@@](O)(C(=O)OC)[C@H](OC(C)=O)[C@]5(CC)C=CCN6CC[C@]43[C@@H]65)C2)C1 [Vincristine] | 32.2 | 79 | 47 |  |
| SGN-CD19A: CD19-directed antibody-drug conjugate: humanized antibody hBU12, maleimidocaproyl linker, monomethyl auristatin F (MMAF); average four drugs per antibody (conjugate) VL: EIVLTQSPATLSLSPGERATLSCSASSSVSYMHWYQQKPGQAPRLLIYDTSKLASGIPARFSGSGSGTDFTLTISSLEPEDVAVYYCFQGSVYPFTFGQGTKLEIKR VH: QVQLQESGPGLVKPSQTLSLTCTVSGGSISTSGMGVGWIRQHPGKGLEWIGHIWWDDDKRYNPALKSRVTISVDTSKNQFSLKLSSVTAADTAVYYCARMELWSYYFDYWGQGTLVTVSS | 18.2 | 85 | 55 | decreasing amounts of blast cells in the bone marrow |
